Laboratory results reported in ChEMBL document CHEMBL1158459, “Discovery of a peroxisome proliferator activated receptor gamma (PPARgamma) modulator with balanced PPARalpha activity for the treatment of type 2 diabetes and dyslipidemia” (J Med Chem, 2009).
Activity calls are given as the source filed them. No cut-off for these calls is given here.

Tests used:
Mus musculus [1] = assay: Antidiabetic activity in C57BLKS/J-m+/+Leprdb db/db mouse assessed as reduction in plasma triglyceride levels at 1 mg/kg, po once daily for 11 days relative to control; assay type: functional; design: scale not given: the % may be the effect or the level left
Mus musculus [2] = assay: Antidiabetic activity in ob/ob mouse assessed as reduction in plasma glucose levels at 10 mg/kg, po once daily for 5 days relative to control; assay type: functional; design: scale not given: the % may be the effect or the level left
[3] = Cmax in C57BLKS/J-m+/+Leprdb db/db mouse at 1 mg/kg, po once daily for 11 days; assay type: ADME, organism-based; design: dose 1 mg/kg, route oral; conditions: in vivo
[4] = AUC in C57BLKS/J-m+/+Leprdb db/db mouse at 1 mg/kg, po once daily for 11 days; assay type: ADME, organism-based; design: dose 1 mg/kg, route oral; conditions: plasma
[5] = AUC in high fat diet-fed streptozotocin-treated mouse at 5 mg/kg, po once daily for 12 days; assay type: ADME, organism-based; design: dose 5 mg/kg, route oral; conditions: plasma
Rattus norvegicus [6] = assay: Antidiabetic activity in Zucker fa/fa rat assessed as decrease in free fatty acid levels at 3 mg/kg, po once daily for 7 days; assay type: functional, organism-based; design: dose 3 mg/kg
Rattus norvegicus [7] = assay: Antidiabetic activity in Zucker fa/fa rat assessed as decrease in free fatty acid levels at 15 mg/kg, po once daily for 7 days; assay type: functional, organism-based; design: dose 15 mg/kg
Rattus norvegicus [8] = assay: Antidiabetic activity in Zucker fa/fa rat assessed as decrease in triglyceride levels at 3 mg/kg, po once daily for 7 days; assay type: functional, organism-based; design: dose 3 mg/kg
Rattus norvegicus [9] = assay: Antidiabetic activity in Zucker fa/fa rat assessed as decrease in triglyceride levels at 1 mg/kg, po once daily for 7 days; assay type: functional, organism-based; design: dose 1 mg/kg
Rattus norvegicus [10] = assay: Antidiabetic activity in Zucker fa/fa rat assessed as decrease in triglyceride levels at 10 mg/kg, po once daily for 7 days; assay type: functional, organism-based; design: dose 10 mg/kg
Rattus norvegicus [11] = assay: Antidiabetic activity in Zucker fa/fa rat assessed as decrease in triglyceride levels at 100 mg/kg, po once daily for 7 days; assay type: functional, organism-based; design: dose 100 mg/kg
Rattus norvegicus [12] = assay: Toxicity in Zucker fa/fa rat assessed as increase in plasma volume at 10 mg/kg, po treated once daily for 7 days; conditions: in vivo, 168 h
Syrian golden hamster = assay: Antidiabetic activity in Syrian golden hamster assessed as reduction in triglyceride level at 0.3 mg/kg, po once daily for 9 days relative to control; assay type: functional, Mesocricetus auratus; design: scale not given: the % may be the effect or the level left
[13] = Cmax in Syrian golden hamster at 1 mg/kg, po once daily for 9 days; assay type: ADME, organism-based, Mesocricetus auratus; design: dose 1 mg/kg, route oral; conditions: in vivo
[14] = Cmax in Syrian golden hamster at 3 mg/kg, po once daily for 9 days; assay type: ADME, organism-based, Mesocricetus auratus; design: dose 3 mg/kg, route oral; conditions: in vivo
[15] = Cmax in Beagle dog at 3 mg/kg, po once daily for 14 days; assay type: ADME, organism-based, Canis lupus familiaris; design: dose 3 mg/kg, route oral; conditions: in vivo
[16] = AUC in Beagle dog at 1 mg/kg, po once daily for 14 days; assay type: ADME, organism-based, Canis lupus familiaris; design: dose 1 mg/kg, route oral; conditions: plasma
[17] = AUC in rat at 2 mg/kg, po; assay type: ADME, organism-based, Plasma; design: dose 2 mg/kg, route oral; conditions: plasma
Mus musculus [18] = assay: Antidiabetic activity in C57BLKS/J-m+/+Leprdb db/db mouse assessed as reduction in plasma glucose levels at 10 mg/kg, po once daily for 11 days relative to control; assay type: functional; design: scale not given: the % may be the effect or the level left
Mus musculus [19] = assay: Antidiabetic activity in C57BLKS/J-m+/+Leprdb db/db mouse assessed as reduction in plasma triglyceride levels at 10 mg/kg, po once daily for 11 days relative to control; assay type: functional; design: scale not given: the % may be the effect or the level left
[20] = molecular target: Peroxisome proliferator-activated receptor alpha (Canis lupus familiaris, UniProt Q95N78); assay: Agonist activity at dog PPARalpha receptor; assay type: functional
Sequence of Peroxisome proliferator-activated receptor alpha (Q95N78 whole entry): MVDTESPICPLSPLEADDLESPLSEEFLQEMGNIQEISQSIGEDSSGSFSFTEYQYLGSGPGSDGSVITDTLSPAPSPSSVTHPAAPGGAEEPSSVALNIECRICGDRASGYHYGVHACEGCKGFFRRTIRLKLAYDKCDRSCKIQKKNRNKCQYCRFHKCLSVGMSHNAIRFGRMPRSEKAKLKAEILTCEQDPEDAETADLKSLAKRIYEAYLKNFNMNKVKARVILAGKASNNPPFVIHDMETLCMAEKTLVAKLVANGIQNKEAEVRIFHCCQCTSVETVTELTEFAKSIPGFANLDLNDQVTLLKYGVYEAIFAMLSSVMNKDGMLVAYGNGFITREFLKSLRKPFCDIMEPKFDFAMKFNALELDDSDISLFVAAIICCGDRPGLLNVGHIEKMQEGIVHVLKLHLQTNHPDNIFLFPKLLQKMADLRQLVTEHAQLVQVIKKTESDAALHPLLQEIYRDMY

Cytochrome P450 2C19 = Cytochrome P450 2C19 (Homo sapiens, UniProt P33261); assay: Inhibition of CYP2C19; assay type: ADME
Sequence of Cytochrome P450 2C19 (P33261 whole entry): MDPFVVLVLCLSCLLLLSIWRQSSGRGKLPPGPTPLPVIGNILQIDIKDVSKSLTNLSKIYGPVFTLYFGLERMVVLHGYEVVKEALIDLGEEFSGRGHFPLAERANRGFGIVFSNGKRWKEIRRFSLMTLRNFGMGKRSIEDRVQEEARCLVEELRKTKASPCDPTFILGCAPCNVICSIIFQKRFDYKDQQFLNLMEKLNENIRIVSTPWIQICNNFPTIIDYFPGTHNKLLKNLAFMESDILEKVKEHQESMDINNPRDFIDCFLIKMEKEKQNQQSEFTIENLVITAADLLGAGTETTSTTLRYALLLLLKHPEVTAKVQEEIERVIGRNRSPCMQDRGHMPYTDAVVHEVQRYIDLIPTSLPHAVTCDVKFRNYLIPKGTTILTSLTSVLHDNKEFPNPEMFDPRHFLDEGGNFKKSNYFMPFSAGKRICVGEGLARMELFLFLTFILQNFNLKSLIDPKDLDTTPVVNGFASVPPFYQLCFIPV

Cytochrome P450 1A2 = Cytochrome P450 1A2 (Homo sapiens, UniProt P05177); assay: Inhibition of CYP1A2; assay type: ADME
Sequence of Cytochrome P450 1A2 (P05177 whole entry): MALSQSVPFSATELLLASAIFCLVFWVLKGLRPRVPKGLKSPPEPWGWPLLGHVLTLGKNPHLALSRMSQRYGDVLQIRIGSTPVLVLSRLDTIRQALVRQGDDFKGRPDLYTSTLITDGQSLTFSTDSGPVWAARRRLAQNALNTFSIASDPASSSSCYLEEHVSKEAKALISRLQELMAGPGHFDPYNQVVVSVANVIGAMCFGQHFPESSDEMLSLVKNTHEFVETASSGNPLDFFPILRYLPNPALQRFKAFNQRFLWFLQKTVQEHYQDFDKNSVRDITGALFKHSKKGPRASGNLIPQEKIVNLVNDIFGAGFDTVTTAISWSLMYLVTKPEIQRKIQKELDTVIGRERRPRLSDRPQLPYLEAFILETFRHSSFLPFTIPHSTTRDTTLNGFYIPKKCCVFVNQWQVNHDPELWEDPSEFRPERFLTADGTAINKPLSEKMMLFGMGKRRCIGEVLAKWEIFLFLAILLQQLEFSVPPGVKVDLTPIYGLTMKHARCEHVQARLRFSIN

Cytochrome P450 2D6 = Cytochrome P450 2D6 (Homo sapiens, UniProt P10635); assay: Inhibition of CYP2D6; assay type: ADME
Sequence of Cytochrome P450 2D6 (P10635 whole entry): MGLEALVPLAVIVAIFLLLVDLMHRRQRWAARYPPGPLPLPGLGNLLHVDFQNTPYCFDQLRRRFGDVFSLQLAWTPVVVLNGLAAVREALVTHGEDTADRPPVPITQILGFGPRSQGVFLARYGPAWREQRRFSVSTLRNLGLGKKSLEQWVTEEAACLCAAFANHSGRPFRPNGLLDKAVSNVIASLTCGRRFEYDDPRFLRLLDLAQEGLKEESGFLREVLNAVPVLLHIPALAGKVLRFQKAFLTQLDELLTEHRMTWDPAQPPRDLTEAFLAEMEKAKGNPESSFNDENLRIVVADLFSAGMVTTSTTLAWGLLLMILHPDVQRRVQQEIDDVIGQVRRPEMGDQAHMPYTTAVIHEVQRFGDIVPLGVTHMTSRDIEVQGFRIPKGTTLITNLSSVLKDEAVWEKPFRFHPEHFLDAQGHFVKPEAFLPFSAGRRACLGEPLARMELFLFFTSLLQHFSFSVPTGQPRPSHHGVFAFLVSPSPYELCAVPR

[21] = molecular target: Oxysterols receptor LXR-alpha (Homo sapiens) (UniProt Q13133); assay: Binding affinity to LXRalpha up to 10 uM
Sequence of Oxysterols receptor LXR-alpha (Homo sapiens) (Q13133 whole entry): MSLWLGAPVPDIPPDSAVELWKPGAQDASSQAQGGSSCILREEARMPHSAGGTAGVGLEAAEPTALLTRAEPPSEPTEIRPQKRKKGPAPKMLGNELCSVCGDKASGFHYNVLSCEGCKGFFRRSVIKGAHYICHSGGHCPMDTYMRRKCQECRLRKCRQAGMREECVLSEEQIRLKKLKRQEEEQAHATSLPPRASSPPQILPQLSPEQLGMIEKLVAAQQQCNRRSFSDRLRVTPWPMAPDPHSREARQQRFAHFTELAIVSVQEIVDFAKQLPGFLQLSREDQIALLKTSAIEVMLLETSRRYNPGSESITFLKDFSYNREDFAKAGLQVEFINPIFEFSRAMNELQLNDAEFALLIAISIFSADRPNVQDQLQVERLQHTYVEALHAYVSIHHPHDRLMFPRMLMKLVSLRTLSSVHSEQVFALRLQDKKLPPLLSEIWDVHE

[22] = molecular target: Oxysterols receptor LXR-beta (Homo sapiens) (UniProt P55055); assay: Binding affinity to LXRbeta up to 10 uM
Sequence of Oxysterols receptor LXR-beta (Homo sapiens) (P55055 whole entry): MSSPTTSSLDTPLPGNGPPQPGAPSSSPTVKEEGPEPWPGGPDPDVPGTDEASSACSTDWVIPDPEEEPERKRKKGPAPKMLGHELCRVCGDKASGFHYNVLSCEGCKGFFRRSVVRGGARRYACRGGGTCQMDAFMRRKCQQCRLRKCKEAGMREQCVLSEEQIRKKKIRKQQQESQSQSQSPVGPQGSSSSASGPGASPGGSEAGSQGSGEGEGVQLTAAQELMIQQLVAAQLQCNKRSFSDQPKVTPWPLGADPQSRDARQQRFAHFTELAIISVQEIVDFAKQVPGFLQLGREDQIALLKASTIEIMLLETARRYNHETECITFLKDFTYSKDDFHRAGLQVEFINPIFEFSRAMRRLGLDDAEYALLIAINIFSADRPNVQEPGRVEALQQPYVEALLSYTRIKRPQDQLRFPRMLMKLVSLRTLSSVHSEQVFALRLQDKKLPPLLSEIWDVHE

[23] = molecular target: Retinoic acid receptor RXR-alpha (Homo sapiens) (UniProt P19793); assay: Binding affinity to RXRalpha up to 10 uM
[24] = molecular target: Nuclear receptor subfamily 1 group I member 2 (Homo sapiens, UniProt O75469); assay: Binding affinity to PXR up to 10 uM
Sequence of Nuclear receptor subfamily 1 group I member 2 (O75469 whole entry): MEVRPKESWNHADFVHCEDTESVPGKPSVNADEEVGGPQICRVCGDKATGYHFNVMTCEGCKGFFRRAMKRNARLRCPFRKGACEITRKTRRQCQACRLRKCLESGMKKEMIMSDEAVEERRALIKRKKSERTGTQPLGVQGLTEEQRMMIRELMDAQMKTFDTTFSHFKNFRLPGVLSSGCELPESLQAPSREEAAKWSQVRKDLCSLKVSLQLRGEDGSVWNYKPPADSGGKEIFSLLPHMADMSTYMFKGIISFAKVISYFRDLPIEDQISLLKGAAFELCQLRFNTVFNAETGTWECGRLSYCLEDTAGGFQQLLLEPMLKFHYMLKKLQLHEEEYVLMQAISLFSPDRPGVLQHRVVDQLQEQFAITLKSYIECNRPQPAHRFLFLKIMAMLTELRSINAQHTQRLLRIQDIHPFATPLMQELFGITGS

[25] = molecular target: Thyroid hormone receptor alpha (Homo sapiens) (UniProt P10827); assay: Binding affinity to TRalpha up to 10 uM
Sequence of Thyroid hormone receptor alpha (Homo sapiens) (P10827 whole entry): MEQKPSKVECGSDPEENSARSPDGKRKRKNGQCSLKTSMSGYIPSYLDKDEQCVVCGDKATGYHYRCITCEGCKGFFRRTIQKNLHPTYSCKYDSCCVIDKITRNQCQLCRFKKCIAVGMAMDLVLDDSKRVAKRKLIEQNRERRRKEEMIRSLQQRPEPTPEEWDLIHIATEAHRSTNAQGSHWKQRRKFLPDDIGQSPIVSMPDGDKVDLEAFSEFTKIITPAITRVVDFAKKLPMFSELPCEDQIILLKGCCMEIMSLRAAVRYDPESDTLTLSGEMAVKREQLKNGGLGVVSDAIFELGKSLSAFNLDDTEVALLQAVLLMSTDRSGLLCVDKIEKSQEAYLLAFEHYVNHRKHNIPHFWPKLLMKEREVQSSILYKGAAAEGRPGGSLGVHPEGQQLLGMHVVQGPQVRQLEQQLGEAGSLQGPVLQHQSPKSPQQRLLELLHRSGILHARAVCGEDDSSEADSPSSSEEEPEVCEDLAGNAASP

[26] = molecular target: Glucocorticoid receptor (Homo sapiens) (UniProt P04150); assay: Activity at GR receptor up to 10 uM by transactivation assay
Sequence of Glucocorticoid receptor (Homo sapiens) (P04150 whole entry): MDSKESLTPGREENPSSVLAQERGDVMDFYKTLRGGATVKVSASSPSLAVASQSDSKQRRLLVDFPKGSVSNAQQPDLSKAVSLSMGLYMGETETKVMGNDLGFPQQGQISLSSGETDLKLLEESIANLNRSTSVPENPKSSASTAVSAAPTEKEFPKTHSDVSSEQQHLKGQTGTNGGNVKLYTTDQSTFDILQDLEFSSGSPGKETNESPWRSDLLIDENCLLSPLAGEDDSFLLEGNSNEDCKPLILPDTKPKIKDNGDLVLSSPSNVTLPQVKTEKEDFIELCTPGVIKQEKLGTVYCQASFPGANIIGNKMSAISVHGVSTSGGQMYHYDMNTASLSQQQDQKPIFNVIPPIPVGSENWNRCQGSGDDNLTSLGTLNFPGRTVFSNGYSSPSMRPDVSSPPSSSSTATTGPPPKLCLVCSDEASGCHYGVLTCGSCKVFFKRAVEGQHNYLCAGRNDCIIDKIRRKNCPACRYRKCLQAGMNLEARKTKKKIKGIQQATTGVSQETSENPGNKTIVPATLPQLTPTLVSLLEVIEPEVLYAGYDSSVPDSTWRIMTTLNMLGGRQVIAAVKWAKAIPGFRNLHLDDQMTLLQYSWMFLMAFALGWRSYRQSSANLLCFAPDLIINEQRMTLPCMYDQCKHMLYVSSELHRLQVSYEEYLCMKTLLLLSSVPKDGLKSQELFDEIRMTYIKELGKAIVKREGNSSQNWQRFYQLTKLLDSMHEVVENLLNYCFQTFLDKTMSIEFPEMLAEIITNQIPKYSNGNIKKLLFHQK

In the case of CC[C@@H](Oc1cccc(Cn2c(C)c(C(=O)c3ccc(Cl)cc3)c3ccc(OC(F)(F)F)cc32)c1)C(=O)O, the Activity (Mus musculus [1]) is reported as 75%, the Activity (Mus musculus [2]) is reported as 34% and the Cmax [3] is reported as 1500 nM. The AUC at 264 h [4] was 1.9 µM·h, the AUC at 288 h [5] was 2.7 µM·h and the Activity (Rattus norvegicus [6]) was “Active”. For the same compound, the Activity (Rattus norvegicus [7]) was “Active”, the Activity (Rattus norvegicus [8]) was “Active” and the Activity (Rattus norvegicus [9]) was “Active”. For the same compound, the Activity (Rattus norvegicus [10]) was “Active”, the Activity (Rattus norvegicus [11]) was “Active” and the Activity (Rattus norvegicus [12]) was “Toxic”. It also gave an Activity (Syrian golden hamster) of 10.1%, a Cmax [13] of 70 nM and a Cmax [14] of 600 nM. For the same compound, the Cmax [15] was 18600 nM, the AUC at 336 h [16] was 5.41 µM·h and the AUC [17] was 1.5 µM·h. For the same compound, the Activity (Mus musculus [18]) was 101%, the Activity (Mus musculus [19]) was 84% and the EC50 [20] was 0.00055 µM. It also gave an IC50 (Cytochrome P450 2C19) of 91 µM, an IC50 (Cytochrome P450 1A2) of 40 µM and an IC50 (Cytochrome P450 2D6) of 7 µM. The Activity [21] was “inactive”, the Activity [22] was “inactive” and the Activity [23] was “inactive”. The Activity [24] was “Not Active”, the Activity [25] was “inactive” and the Activity [26] was “inactive”.
